Source: US11344533B2, “Autotaxin inhibitor compounds” (Sabre Therapeutics LLC, priority 2013, dated 2022)

Each molecule was assayed on dog (assay: dog liver toxicity study). Settings: dog liver toxicity study; liver markers ALT, AST, AlkP and bilirubin.
Description: In some embodiments, liver toxicity can be assessed in suitable in vivo assays. In some embodiments, liver toxicity is assessed by monitoring any increases in the levels of liver markers ALT, AST, AlkP and bilirubin.

Q: How did the liver markers turn out when CCCn1cc(-n2c(Cl)c(Sc3cccc(C(=O)O)c3F)c3ccc(Cl)c(F)c32)cn1 [Compound 1-13, 3-((2,6-dichloro-7-fluoro-1-(1-propyl-1H-pyrazol-4-yl)-1H-indol-3-yl)thio)-2-fluorobenzoic acid] was run?
A: Its liver markers is “did not exhibit the same effects”.

Same assay, conditions: dosed at 100 mpk for 5 days

Q: CCCn1cc(-n2c(Cl)c(Sc3cccc(C(=O)O)c3F)c3ccc(Cl)c(F)c32)cn1 [Compound 1-13, 3-((2,6-dichloro-7-fluoro-1-(1-propyl-1H-pyrazol-4-yl)-1H-indol-3-yl)thio)-2-fluorobenzoic acid] was tested. Which “increases in liver markers ALT, AST, AlkP and bilirubin” value did it give?
A: Its value is “no increases in liver markers ALT, AST, AlkP and bilirubin were observed”.

The molecules below were run against human autotaxin (Homo sapiens (Human), UniProt Q13822) (assay: Human Autotaxin Assay (choline release from LPC, Hep3B conditioned media)). Settings: ATX activity in concentrated conditioned media from Hep3B cells, substrate LPC.
Type: biochemical

Q: For “3-((6-chloro-2-cyclopropyl-1-(1-(6-(3-(3′,6′-dihydroxy-3-oxo-3H-spiro[isobenzofuran-1,9′-xanthen]-5-yl)ureido)hexyl)-1H-pyrazol-4-yl)-7-fluoro-1H-indol-3-yl)thio)-2-fluorobenzoic acid [Compound 1-131]”, which IC50 is on record?
A: The IC50 was < 500 nM.

Q: CCCn1cc(-n2c(Cl)c(Sc3cccc(C(=O)O)c3)c3ccc(Cl)cc32)cn1 [Compound 1-1, 3-((2,6-dichloro-1-(1-propyl-1H-pyrazol-4-yl)-1H-indol-3-yl)thio)benzoic acid] was tested. Which IC50 did it give?
A: Its IC50 is < 500 nM.

Q: Which IC50 does the source give for CCCn1cc(-n2c(C#N)c(Sc3cccc(C(=O)O)c3)c3ccc(Cl)cc32)cn1 [Compound 1-3, 3-((6-chloro-2-cyano-1-(1-propyl-1H-pyrazol-4-yl)-1H-indol-3-yl)thio)benzoic acid] here?
A: Its IC50 is < 500 nM.

Q: CCCn1cc(-n2c(C3CC3)c(Sc3cccc(C(=O)O)c3)c3ccc(Cl)cc32)cn1 [Compound 1-4, 3-((6-chloro-2-cyclopropyl-1-(1-propyl-1H-pyrazol-4-yl)-1H-indol-3-yl)thio)benzoic acid] was tested. Which IC50 did it give?
A: Its IC50 is < 500 nM.

Q: Which IC50 does the source give for CCCn1cc(-n2c(Cl)c(Sc3cccc(C(=O)O)c3)c3ccc(Cl)c(F)c32)cn1 [Compound 1-7, 3-((2,6-dichloro-7-fluoro-1-(1-propyl-1H-pyrazol-4-yl)-1H-indol-3-yl)thio)benzoic acid] here?
A: Its IC50 is < 500 nM.

Q: For CCCn1cc(-n2c(C3CC3)c(Sc3cccc(C(=O)O)c3)c3ccc(Cl)c(F)c32)cn1 [Compound 1-10, 3-((6-chloro-2-cyclopropyl-7-fluoro-1-(1-propyl-1H-pyrazol-4-yl)-1H-indol-3-yl)thio)benzoic acid], which IC50 is on record?
A: The IC50 was < 500 nM.

Q: With CCCn1cc(-n2c(C3CC3)c(Sc3cccc(C(=O)O)c3F)c3ccc(Cl)c(F)c32)cn1 [Compound 1-16, 3-((6-chloro-2-cyclopropyl-7-fluoro-1-(1-propyl-1H-pyrazol-4-yl)-1H-indol-3-yl)thio)-2-fluorobenzoic acid] as the molecule, how does the IC50 read?
A: Its IC50 is < 500 nM.

Q: For CCn1cc(-n2c(Cl)c(Sc3cccc(C(=O)O)c3F)c3ccc(Cl)c(F)c32)cn1 [Compound 1-31, 3-((2,6-dichloro-1-(1-ethyl-1H-pyrazol-4-yl)-7-fluoro-1H-indol-3-yl)thio)-2-fluorobenzoic acid], which IC50 is on record?
A: The IC50 was < 500 nM.

Q: Cn1cc(-n2c(Cl)c(Sc3cccc(C(=O)O)c3F)c3ccc(Cl)c(F)c32)cn1 [Compound 1-49, 3-((2,6-dichloro-7-fluoro-1-(1-methyl-1H-pyrazol-4-yl)-1H-indol-3-yl)thio)-2-fluorobenzoic acid] was tested. Which IC50 did it give?
A: Its IC50 is < 500 nM.

Q: CCn1cc(-n2c(C3CC3)c(Sc3cccc(C(=O)O)n3)c3ccc(Cl)c(F)c32)cn1 [Compound 1-92, 6((6-chloro-2-cyclopropyl-1-(1-ethyl-1H-pyrazol-4-yl)-7-fluoro-1H-indol-3-yl)thio)picolinic acid] was tested. Which IC50 did it give?
A: Its IC50 is < 500 nM.

Q: Which IC50 does the source give for O=C(O)c1cccc(Sc2c(C3CC3)n(-c3cn[nH]c3)c3c(F)c(Cl)ccc23)c1F [Compound 1-119, 3-((6-chloro-2-cyclopropyl-7-fluoro-1-(1H-pyrazol-4-yl)-1H-indol-3-yl)thio)-2-fluorobenzoic acid] here?
A: The IC50 was < 500 nM.

Q: How did the IC50 turn out when O=C(O)c1cccc(Sc2c(C3CC3)n(-c3cnn(CCO)c3)c3c(F)c(Cl)ccc23)c1F [Compound 1-120, 3-((6-chloro-2-cyclopropyl-7-fluoro-1-(1-(2-hydroxyethyl)-1H-pyrazol-4-yl)-1H-indol-3-yl)thio)-2-fluorobenzoic acid] was run?
A: Its IC50 is < 500 nM.

Q: How did the IC50 turn out when NC(=O)OCCn1cc(-n2c(C3CC3)c(Sc3cccc(C(=O)O)c3F)c3ccc(Cl)c(F)c32)cn1 [Compound 1-121, 3-(1-(1-(2-(carbamoyloxy)ethyl)-1H-pyrazol-4-yl)-(6-chloro-2-cyclopropyl-7-fluoro-1H-indol-3-yl)thio)-2-fluorobenzoic acid] was run?
A: The IC50 was < 500 nM.

Q: NCCn1cc(-n2c(C3CC3)c(Sc3cccc(C(=O)O)c3F)c3ccc(Cl)c(F)c32)cn1 [Compound 1-122, 3-(1-(1-(2-aminoethyl)-1H-pyrazol-4-yl)-(6-chloro-2-cyclopropyl-7-fluoro-1H-indol-3-yl)thio)-2-fluorobenzoic acid] was tested. Which IC50 did it give?
A: Its IC50 is < 500 nM.

Q: With NC(=O)NCCn1cc(-n2c(C3CC3)c(Sc3cccc(C(=O)O)c3F)c3ccc(Cl)c(F)c32)cn1 [Compound 1-123, 3-((6-chloro-2-cyclopropyl-7-fluoro-1-(1-(2-ureidoethyl)-1H-pyrazol-4-yl)-1H-indol-3-yl)thio)-2-fluorobenzoic acid] as the molecule, how does the IC50 read?
A: Its IC50 is < 500 nM.

Q: How did the IC50 turn out when O=C(O)CCCn1cc(-n2c(C3CC3)c(Sc3cccc(C(=O)O)c3F)c3ccc(Cl)c(F)c32)cn1 [Compound 1-124, 3-(1-(1-(3-carboxypropyl)-1H-pyrazol-4-yl)-(6-chloro-2-cyclopropyl-7-fluoro-1H-indol-3-yl)thio)-2-fluorobenzoic acid] was run?
A: Its IC50 is < 500 nM.

Q: How did the IC50 turn out when NC(=O)CCCn1cc(-n2c(C3CC3)c(Sc3cccc(C(=O)O)c3F)c3ccc(Cl)c(F)c32)cn1 [Compound 1-125, 3-(1-(1-(4-amino-4-oxobutyl)-1H-pyrazol-4-yl)-(6-chloro-2-cyclopropyl-7-fluoro-1H-indol-3-yl)thio)-2-fluorobenzoic acid] was run?
A: Its IC50 is < 500 nM.

Q: O=C(O)c1cccc(Sc2c(C3CC3)n(-c3cnn(CC(F)(F)F)c3)c3c(F)c(Cl)ccc23)c1F [Compound 1-126, 3-((6-chloro-2-cyclopropyl-7-fluoro-1-(1-(2,2,2-trifluoroethyl)-1H-pyrazol-4-yl)-1H-indol-3-yl)thio)-2-fluorobenzoic acid] was tested. Which IC50 did it give?
A: The IC50 was < 500 nM.

Q: With NCCCCCCn1cc(-n2c(C3CC3)c(Sc3cccc(C(=O)O)c3F)c3ccc(Cl)c(F)c32)cn1 [Compound 1-128, 3-(1-(1-(6-aminohexyl)-1H-pyrazol-4-yl)-(6-chloro-2-cyclopropyl-7-fluoro-1H-indol-3-yl)thio)-2-fluorobenzoic acid] as the molecule, how does the IC50 read?
A: Its IC50 is < 500 nM.

Q: With O=C(O)c1cccc(Sc2c(Cl)n(-c3cccnc3)c3c(F)c(Cl)ccc23)c1F [Compound 2-1, 3-((2,6-dichloro-7-fluoro-1-(pyridin-3-yl)-1H-indol-3-yl)thio)-2-fluorobenzoic acid] as the molecule, how does the IC50 read?
A: Its IC50 is < 500 nM.

Q: O=C(O)c1cccc(Sc2c(Br)n(-c3cccnc3)c3c(F)c(Cl)ccc23)c1F [Compound 2-2, 3-((2-bromo-6-chloro-7-fluoro-1-(pyridin-3-yl)-1H-indol-3-yl)thio)-2-fluorobenzoic acid] was tested. Which IC50 did it give?
A: Its IC50 is < 500 nM.

Q: For O=C(O)c1cccc(Sc2c(C3CC3)n(-c3cccnc3)c3c(F)c(Cl)ccc23)c1F [Compound 2-3, 3-((6-chloro-2-cyclopropyl-7-fluoro-1-(pyridin-3-yl)-1H-indol-3-yl)thio)-2-fluorobenzoic acid], which IC50 is on record?
A: The IC50 was < 500 nM.

Q: With CCn1cc(-n2c(C3CC3)c(Sc3cccc(CC(=O)O)c3F)c3ccc(Cl)c(F)c32)cn1 [Compound 2-7, 2-(3-((6-chloro-2-cyclopropyl-1-(1-ethyl-1H-pyrazol-4-yl)-7-fluoro-1H-indol-3-yl)thio)-2-fluorophenyl)acetic acid] as the molecule, how does the IC50 read?
A: The IC50 was < 500 nM.
